# What was measured:
# Type in all cases: cell-based
# [1] = tested on: sixty human tumor cell lines; assay: NCI DTP screen, means over sixty human tumor cell lines; conditions: two-day treatment
# Description: (§1) Screening of compounds 70 and 71 against several cancer cell lines The human tumor cell lines of the cancer screening panel are grown in RPMI 1640 medium containing 5% fetal bovine serum and 2 mM L-glutamine. For a typical screening experiment, cells are inoculated into 96 well microtiter plates in 100 μL at plating densities ranging from 5,000 to 40,000 cells/well depending on the doubling time of individual cell lines. After cell inoculation, the microtiter plates are incubated at 37° C., 5% CO2, 95% air and 100% relative humidity for 24 h prior to addition of experimental drugs.
# (§2) After 24 h, two plates of each cell line are fixed in situ with TCA, to represent a measurement of the cell population for each cell line at the time of drug addition (Tz). Experimental drugs are solubilized in dimethyl sulfoxide at 400-fold the desired final maximum test concentration and stored frozen prior to use. At the time of drug addition, an aliquot of frozen concentrate is thawed and diluted to twice the desired final maximum test concentration with complete medium containing 50 μg/ml gentamicin. Additional four, 10-fold or ½ log serial dilutions are made to provide a total of five drug concentrations plus control. Aliquots of 100 μl of these different drug dilutions are added to the appropriate microtiter wells already containing 100 μl of medium, resulting in the required final drug concentrations.
# Following drug addition, the plates are incubated for an additional 48 h at 37° C., 5% CO2, 95% air, and 100% relative humidity. For adherent cells, the assay is terminated by the addition of cold TCA. Cells are fixed in situ by the gentle addition of 50 μl of cold 50% (w/v) TCA (final concentration, 10% TCA) and incubated for 60 minutes at 4° C. […] Bound stain is subsequently solubilized with 10 mM trizma base, and the absorbance is read on an automated plate reader at a wavelength of 515 nm. […] Using the seven absorbance measurements [time zero, (Tz), control growth, (C), and test growth in the presence of drug at the five concentration levels (Ti)], the percentage growth is calculated at each of the drug concentrations levels. Percentage growth inhibition is calculated as: [(Ti−Tz)/(C−Tz)]×100 for concentrations for which Ti>/=Tz [(Ti−Tz)/Tz]×100 for concentrations for which Ti<Tz
# Three dose response parameters are calculated for each experimental agent. […] The drug concentration resulting in total growth inhibition (TGI) is calculated from Ti=Tz. […] Values are calculated for each of these three parameters if the level of activity is reached; however, if the effect is not reached or is exceeded, the value for that parameter is expressed as greater or less than the maximum or minimum concentration tested. […]
# [2] = tested on: HCT-116; assay: NCI DTP cell line screen (SRB), Colon Cancer
# Description: as §1, §2
# (§3) Following drug addition, the plates are incubated for an additional 48 h at 37° C., 5% CO2, 95% air, and 100% relative humidity. For adherent cells, the assay is terminated by the addition of cold TCA. Cells are fixed in situ by the gentle addition of 50 μl of cold 50% (w/v) TCA (final concentration, 10% TCA) and incubated for 60 minutes at 4° C. The supernatant is discarded, and the plates are washed five times with tap water and air dried. Sulforhodamine B (SRB) solution (100 μl) at 0.4% (w/v) in 1% acetic acid is added to each well, and plates are incubated for 10 minutes at room temperature. After staining, unbound dye is removed by washing five times with 1% acetic acid and the plates are air dried. Bound stain is subsequently solubilized with 10 mM trizma base, and the absorbance is read on an automated plate reader at a wavelength of 515 nm. For suspension cells, the methodology is the same except that the assay is terminated by fixing settled cells at the bottom of the wells by gently adding 50 μl of 80% TCA (final concentration, 16% TCA). Using the seven absorbance measurements [time zero, (Tz), control growth, (C), and test growth in the presence of drug at the five concentration levels (Ti)], the percentage growth is calculated at each of the drug concentrations levels. Percentage growth inhibition is calculated as: [(Ti−Tz)/(C−Tz)]×100 for concentrations for which Ti>/=Tz [(Ti−Tz)/Tz]×100 for concentrations for which Ti<Tz
# (§4) Three dose response parameters are calculated for each experimental agent. […] The drug concentration resulting in total growth inhibition (TGI) is calculated from Ti=Tz. […] Values are calculated for each of these three parameters if the level of activity is reached; however, if the effect is not reached or is exceeded, the value for that parameter is expressed as greater or less than the maximum or minimum concentration tested.
# (§5) The methods described were used to test compounds 70 and 71 on a panel of sixty cell lines under a screening service provided by the Developmental Therapeutics Program at the National Institutes of Health. Shown in FIG. 1C are 1, RPMI-8226 leukemia cells; 2; NCI-H322M non-small cell lung cancer cells; 3, HT29 colon cancer cells; 4, U251 CNS cancer cells; 5, SK-MEL-28 melanoma cancer cells; 6, SK-OV-3 ovarian cancer cells; 7, RXF 393 renal cancer cells; 8, PC-3 prostate cancer cells; 9, MDA-MB-231 breast cancer cells.
# [3] = tested on: KM12; assay: NCI DTP cell line screen (SRB), Colon Cancer
# Description: as §1, §2, §3, §4, §5
# [4] = tested on: SW-620; assay: NCI DTP cell line screen (SRB), Colon Cancer
# Description: as §1, §2, §3, §4, §5
# [5] = tested on: HT29; assay: NCI DTP cell line screen (SRB), Colon Cancer
# [6] = tested on: 786-0; assay: NCI DTP cell line screen (SRB), Renal Cancer
# Description: as §1, §2, §3, §4, §5
# [7] = tested on: A498; assay: NCI DTP cell line screen (SRB), Renal Cancer
# Description: as §1, §2, §3, §4, §5
# [8] = tested on: SN12C; assay: NCI DTP cell line screen (SRB), Renal Cancer
# Description: as §1, §2, §3, §4, §5
# [9] = tested on: TK-10; assay: NCI DTP cell line screen (SRB), Renal Cancer
# Description: as §1, §2, §3, §4, §5
compound,measurement,setting,value
"NCC(=O)Nc1ccc(-n2nc(C(F)(F)F)cc2-c2ccc3c(ccc4ccccc43)c2)cc1 [Compound 70, 2-Amino-N-{4-[5-(2-phenanthrenyl)-3-(trifluoromethyl)-1H-pyrazol-1-yl]-phenyl}-acetamide]",mean TGI among the sixty cell lines,[1],3.2 µM
same,Percent Growth,[2]; Log10 Concentration −4.0,5%
same,Percent Growth,[2]; Log10 Concentration −5.0,−9%
same,Percent Growth,[2]; Log10 Concentration −6.0,57%
same,Percent Growth,[2]; Log10 Concentration −7.0,93%
same,Percent Growth,[2]; Log10 Concentration −8.0,107%
same,TGI,[3],2.67E−06
same,Percent Growth,[3]; Log10 Concentration −4.0,−51%
same,Percent Growth,[3]; Log10 Concentration −5.0,−73%
same,Percent Growth,[3]; Log10 Concentration −6.0,54%
same,Percent Growth,[3]; Log10 Concentration −7.0,91%
same,Percent Growth,[3]; Log10 Concentration −8.0,98%
same,TGI,[4],4.23E−06
same,Percent Growth,[4]; Log10 Concentration −4.0,−28%
same,Percent Growth,[4]; Log10 Concentration −5.0,−32%
same,Percent Growth,[4]; Log10 Concentration −6.0,54%
same,Percent Growth,[4]; Log10 Concentration −7.0,100%
same,Percent Growth,[4]; Log10 Concentration −8.0,100%
same,TGI,[5],2.64E−06
same,Percent Growth,[5]; Log10 Concentration −4.0,−26%
same,Percent Growth,[5]; Log10 Concentration −5.0,−65%
same,Percent Growth,[5]; Log10 Concentration −6.0,47%
same,Percent Growth,[5]; Log10 Concentration −7.0,88%
same,Percent Growth,[5]; Log10 Concentration −8.0,92%
same,TGI,[6],2.85E−06
same,Percent Growth,[6]; Log10 Concentration −4.0,−54%
same,Percent Growth,[6]; Log10 Concentration −5.0,−72%
same,Percent Growth,[6]; Log10 Concentration −6.0,60%
same,Percent Growth,[6]; Log10 Concentration −7.0,95%
same,Percent Growth,[6]; Log10 Concentration −8.0,104%
same,TGI,[7],5.75E−06
same,Percent Growth,[7]; Log10 Concentration −4.0,−54%
same,Percent Growth,[7]; Log10 Concentration −5.0,−30%
same,Percent Growth,[7]; Log10 Concentration −6.0,95%
same,Percent Growth,[7]; Log10 Concentration −7.0,126%
same,Percent Growth,[7]; Log10 Concentration −8.0,98%
same,TGI,[8],3.51E−06
same,Percent Growth,[8]; Log10 Concentration −4.0,−47%
same,Percent Growth,[8]; Log10 Concentration −5.0,−65%
same,Percent Growth,[8]; Log10 Concentration −6.0,78%
same,Percent Growth,[8]; Log10 Concentration −7.0,94%
same,Percent Growth,[8]; Log10 Concentration −8.0,96%
same,TGI,[9],3.10E−06
same,Percent Growth,[9]; Log10 Concentration −4.0,−70%
same,Percent Growth,[9]; Log10 Concentration −5.0,−80%
same,Percent Growth,[9]; Log10 Concentration −6.0,77%
same,Percent Growth,[9]; Log10 Concentration −7.0,100%
same,Percent Growth,[9]; Log10 Concentration −8.0,102%

# — patent publication US8541460B2, “PDK-1/Akt signaling inhibitors” (The Ohio State University, priority 2003, dated 2013)
